What was measured:
[1] = test system: human SIRT1 enzyme; design: method as in doi:10.1177/1934578X1801301130; settings: cited from earlier work
[2] = test system: NCI-H460 cells; assay: MTT cell viability assay, NCI-H460 cells; format: cell-based, human
Experimental: (§1) The Bioresource Collection and Research Center (BCRC) in Hsinchu, Taiwan provided the NCI-H460 and A549 cell lines, which were cultured in DMEM supplemented with 10% FBS, 100 U/mL penicillin A, and 100 U/mL streptomycin. These cells were kept at a temperature of 37 °C with 5% CO2 and a humidified air environment.
(§2) To investigate the impact of α-viniferin (0–50 μM), ε-viniferin (0–50 μM), and signal transduction inhibitors (20 μM PD98059, 10 μM SB431542, 20 μM SP600125, 20 μΜ LY294002, 10 μM BIRB796, or 10 μM GO6976) on the viability of NCI-H460 or A549 cells were investigated using MTT assay. NCI-H460 or A549 cells were treated with various concentrations of α-viniferin, ε-viniferin, and signal transduction inhibitors and were incubated for 24, 48, or 72 h. Following incubation, 5 mg/mL MTT solution in phosphate-buffered saline (PBS) was added to each well, and the plate was further incubated for 4 h at 37 °C. Following this, the medium was aspirated, and DMSO was utilized to dissolve the MTT-formazan crystals. Finally, the solution was analyzed using a microplate reader at a wavelength of 540 nm.

[3] = test system: A549 cells; assay: MTT cell viability assay, A549 cells; format: cell-based, human; settings: low doses (20 μM)
Experimental: as §1, §2

[4] = test system: NCI-H460 cells; assay: Annexin V/7-AAD double staining, flow cytometry; format: cell-based, human; settings: 24 h, control 5.3%
Experimental: To investigate the molecular mechanism by which α-viniferin affects NCI-H460 cells, the presence of apoptotic and necrotic cells was analyzed using double staining with annexin V and 7-aminoactinomycin D (7-AAD). Annexin V, which binds to phosphatidylserine (PS), is used as a marker of early-stage apoptosis. The 7-ADD is a fluorescent DNA dye that is excluded from viable cells with intact membranes but can penetrate the plasma membrane of apoptotic and necrotic cells. Double staining with both annexin V and 7-AAD can differentiate between cells in different stages of apoptosis and necrosis. Specifically, cells that are annexin V+/7-AAD- are in early apoptosis, cells that are annexin V+/7-AAD+ are in late apoptosis, and cells that are annexin V-/7-AAD+ are in necrosis. Cells that are annexin V-/7-AAD- are considered viable. […] These findings implied dose-dependent induction of apoptosis by α-viniferin in NCI-H460 cells. The mechanism behind α-viniferin-induced apoptosis in NCI-H460 cells merits further investigation.
The annexin V and 7-ADD double staining was utilized to detect apoptotic and necrotic cells. NCI-H460 cells were treated with α-viniferin at various concentrations (0, 5, 10, 20, and 30 μM) for 24 h. Following treatment, the cells were collected by trypsinization and suspended in a warm medium. The cells in a suspension were centrifuged at 2000× g for 5 min, and the resulting supernatant was removed, leaving the cell pellets. The pellets were subsequently resuspended in 200 µL of PBS and were fixed by adding […]. Next, the cell pellets that had been fixed were resuspended in 500 µL of 1 × annexin V-FITC Binding Buffer, to which 5 µL each of annexin V-FITC and 7-AAD staining reagents were added. The samples were then vortexed gently and incubated for 15 min at 4 °C in the dark. Finally, the samples were analyzed using a BD FACScan™ flow cytometer.

[5] = test system: NCI-H460 cells; assay: Western blot of apoptosis-related proteins; format: cell-based, human; settings: 10, 15, 20, 30 μM, 24 h
Experimental: The western blot analysis was conducted to check the expression levels of cleaved caspase-3, cleaved PARP, SIRT1, vimentin, and AKT phosphorylation in NCI-H460 cells after treatment with α-viniferin at various concentrations (0, 10, 15, 20, and 30 μM) for 24 h. After treatment, the cells in a 10-cm plate were lysed in an ice-cold lysis buffer, containing protease and […] inhibitors. The Bio-Rad protein assay kit (Bio-Rad Laboratories, Hercules, CA, USA) was utilized to measure the protein concentration in each lysate. Equal amounts of protein (50 μg) were loaded onto each lane, separated using sodium dodecyl sulfate-polyacrylamide gel electrophoresis (SDS-PAGE), and subsequently transferred onto polyvinylidene fluoride (PVDF) membranes. First, the membranes were blocked using 1% BSA in PBS at room temperature for 1 h. Then, the membranes incubated with primary antibodies against full length caspase-3, activated caspase-3, full length PARP, cleaved PARP, SIRT1, vimentin, and AKT phosphorylation, and followed by secondary antibodies conjugated with horseradish peroxidase were added to the samples. Finally, the immunoreactive bands were visualized using an enhanced chemiluminescence (ECL) detection system.

[6] = test system: NCI-H460 cells; assay: Immunofluorescence assay of AIF localization (Hoechst 33258 nuclear stain); format: cell-based, human; settings: 5, 10, 15, 20, 30 μM, 24 h
Experimental: The immunofluorescence assay was conducted following the method described in a previous study to detect the localization of AIF in NCI-H460 cells after treatment with α-viniferin at various concentrations (0, 5, 10, 15, 20, and 30 μM) for 24 h. After treatment, the cells in a 6-well plate were washed with PBS, and fixed immediately with 4% formaldehyde at room temperature for 15 min. Then, NCI-H460 cells were treated with 0.1% Triton X-100 in PBS at room temperature for 15 min to achieve permeabilization. After that, NCI-H460 cells were incubated with anti-AIF primary antibodies at 4 °C for 24 h, followed by incubation with secondary antibodies conjugated with fluorescein isothiocyanate at 37 °C for 1 h. To stain the cell nuclei, NCI-H460 cells were treated with a solution containing […] Hoechst 33,258 for 30 min. After washing the cells with PBS, they were mounted onto a glass slide for visualization. Confocal laser scanning microscopy was employed to capture the images. The mean fluorescence intensity, which represented the protein level, was analyzed using the Image J software.

[7] = test system: NCI-H460-cell xenografts; assay: In vivo xenograft tumor growth experiment; design: species or system BALB/c nude mice
Experimental: (§3) The male BALB/c nude mice utilized in this investigation were obtained from the National Laboratory Animal Breeding and Research Center situated in Taiwan. All animal experimentation procedures were conducted in accordance with National Tsinghua University’s Institutional Animal Care and Use Committee Guidelines (Protocol No. 107049). For this study, the hind leg of five-week-old nude mice was subcutaneously implanted with 1 × 10^6 NCI-H460 cells. Treatment was initiated only after the tumors had grown to a volume of 100–200 mm^3. Subsequently, the nude mice with NCI-H460-cell xenografts were randomly allocated into two groups: experimental and control, each comprising five mice. The experimental group was administered 5 mg/kg α-viniferin through intraperitoneal injection five times every week, while the control group was administered PBS. After four weeks, the mice were euthanized. Tumor weight, vimentin expression, histopathological changes and apoptosis in the tumor section were evaluated using immunohistochemistry (IHC) staining, hematoxylin and eosin staining, and TUNEL assay. The quantification of AST, CPK, LDH, and creatinine levels was carried out following previously described procedures. Briefly, AST, LDH, CPK, and creatinine levels were quantified using commercial kits (Wako Pure Chemical Industries, Osaka, Japan).

[8] = Serum AST, CPK, LDH and creatinine in xenograft-bearing mice; format: in vivo, BALB/c nude mice; settings: 5 mg/kg i.p., five times every week, four weeks
Experimental: as §3

[9] = test system: osteosarcoma cells (HOS); design: method as in PMID 34728247; settings: cited from earlier work
[10] = test system: osteosarcoma cells (U2OS); design: method as in PMID 34728247; settings: cited from earlier work
[11] = test system: A549; design: method as in PMID 34728247; settings: A549 cells; cited from earlier work
[12] = test system: A549 lung cancer cells; design: method as in PMID 34728247; settings: cited from earlier work
[13] = test system: NSCLC cells; design: method as in PMID 35684095; settings: cited from earlier work
[14] = 5 mg/kg i.p., five times every week, four weeks, compared with control

Oc1ccc([C@H]2c3c(O)cc(O)cc3[C@H]3c4c(cc(O)cc4[C@@H]2c2cc(/C=C/c4cc(O)cc5c4[C@H](c4cc(O)cc(O)c4)[C@@H](c4ccc(O)cc4)O5)ccc2O)O[C@@H]3c2ccc(O)cc2)cc1 [vitisin A]
activity of the human SIRT1 enzyme [1]: inhibit the activity

(+)-hopeaphenol
activity of the human SIRT1 enzyme [1]: inhibit the activity

Oc1ccc([C@H]2Oc3cc(O)cc(/C=C/c4ccc5c(c4)[C@@H](c4cc(O)cc6c4[C@H](c4cc(O)cc(O)c4)[C@@H](c4ccc(O)cc4)O6)[C@H](c4ccc(O)cc4)O5)c3[C@@H]2c2cc(O)cc(O)c2)cc1 [(−)-vitisin B]
activity of the human SIRT1 enzyme [1]: inhibit the activity

Oc1ccc(/C=C/c2cc(O)cc3c2[C@@H](c2cc(O)cc(O)c2)[C@H](c2ccc(O)cc2)O3)cc1 [ε-viniferin]
anti-proliferative effect ([2]; 20 μM): did not exhibit potent anti-proliferative effects
anti-proliferative effect ([2]; higher concentrations (above 20 μM)): did demonstrate such effects
cell viability [3]: inhibited A549 cell viability

Oc1ccc([C@H]2Oc3cc(O)cc4c3[C@@H]2c2cc(O)cc3c2[C@@H](c2cc(O)cc5c2[C@@H]4[C@H](c2ccc(O)cc2)O5)[C@H](c2ccc(O)cc2)O3)cc1 [α-viniferin, α-Viniferin]
cell viability ([2]; low doses 10–20 μM, 24, 48, 72 h): inhibited cell viability in a dose- and time-dependent manner
apoptotic cells (early + late apoptotic cells) ([4]; 5 μM): 7.0%
apoptotic cells (early + late apoptotic cells) ([4]; 10 μM): 8.3%
apoptotic cells (early + late apoptotic cells) ([4]; 20 μM): 22.3%
apoptotic cells (early + late apoptotic cells) ([4]; 30 μM): 35.0%
protein expression level of SIRT1 [5]: decreased the protein expression levels
protein expression level of vimentin [5]: decreased the protein expression levels
protein expression of activated caspase-3 [5]: increased the protein expression
protein expression of cleaved PARP [5]: increased the protein expression
AKT phosphorylation ([5]; normalized to AKT): decreased the protein expression levels
AIF translocation to the nucleus [6]: translocated to the nucleus
DNA fragmentation [6]: caused DNA fragmentation
apoptotic cells in tumor tissue (TUNEL staining) ([7]; 5 mg/kg i.p., five times every week, four weeks): increased numbers of apoptotic cells
tumor volume [7, 14]: more significant reduction
tumor weight [7, 14]: more significant reduction
vimentin expression in tumor (IHC) [7, 14]: reduced
tumor growth ([7]; 5 mg/kg, i.p., five days/week): suppression of tumor growth
liver or kidney function (serum AST, CPK, LDH, creatinine) [8]: no negative impact
apoptosis [9]: induce apoptosis
apoptosis [10]: induce apoptosis
apoptosis [11]: induce apoptosis
epithelial mesenchymal transition (EMT) [12]: inhibit epithelial mesenchymal transition
TGF-induced vimentin expression [13]: inhibit TGF-induced vimentin expression

COc1cccc(-c2cc(=O)c3ccccc3o2)c1N [PD98059, reference compound]
cell viability ([2]; inhibitor 20 μM, 24 h): decreased cell viability

O=c1cc(N2CCOCC2)oc2c(-c3ccccc3)cccc12 [LY294002, reference compound]
cell viability ([2]; inhibitor 20 μM, 24 h): decreased cell viability

Reference: paper PMC10223120, “α-Viniferin-Induced Apoptosis through Downregulation of SIRT1 in Non-Small Cell Lung Cancer Cells” (Pharmaceuticals, 2023)
